Assay results as given in patent US8889712B2, “IAP antagonists” (Bristol-Myers Squibb Company, priority 2012, dated 2014).
Like-named read-outs stand apart in the source and are kept apart here.

What was measured:
[1] = target: T1, XIAP BIR3 (Homo sapiens, UniProt P98170); test: XIAP-BIR3/SMAC Homogeneous Time Resolved Fluorescence (HTRF) Assay; assay type: binding
T1 construct: His-BIR3 (241-356, XIAP)
Description: A. XIAP-BIR3/SMAC Homogeneous Time Resolved Fluorescence (HTRF) Assay Assays were performed in black, flat-bottom, 384-well plates. […] The reaction was incubated at room temperature for 60 minutes, following which 10 μl of mouse anti-6×His-terbium labeled Fab (Medarex, Cis-bio) was added to the reaction (40 μl) for an additional 30 minute incubation. […] Compounds were dissolved at 3 mM in dimethylsulfoxide (DMSO) and evaluated at eleven serially diluted concentrations. IC50 and Ki values were derived by non-linear regression analysis.

[2] = target: T2, XIAP BIR2-3 (Homo sapiens, UniProt P98170, C202A/C213G); test: XIAP-BIR2-3 dimeric SMAC Peptide Homogeneous Time Resolved Fluorescence (HTRF) Assay; assay type: binding
T2 construct: His-BIR2-3 (125-356, C202A/C213G, XIAP)
Description: B. […] Assays were performed in black, flat-bottom, 384-well plates. […] Compounds were dissolved at 3 mM in dimethylsulfoxide (DMSO) and evaluated at eleven serially diluted concentrations. IC50 and Ki values were derived by non-linear regression analysis.

[3] = 1 nM N-His-BIR3 (241-356, XIAP), 5 nM fluorescein labeled SMAC peptide, HTRF signal, read-out: XIAP BIR3 IC50
[4] = 0.5 nM N-His-BIR2-3 (125-356, C202A/C213G, XIAP), 20 nM fluorescein labeled dimeric SMAC peptide, HTRF signal, read-out: XIAP BIR2-3 IC50

T2 sequence (P98170 125-356 C202A/C213G): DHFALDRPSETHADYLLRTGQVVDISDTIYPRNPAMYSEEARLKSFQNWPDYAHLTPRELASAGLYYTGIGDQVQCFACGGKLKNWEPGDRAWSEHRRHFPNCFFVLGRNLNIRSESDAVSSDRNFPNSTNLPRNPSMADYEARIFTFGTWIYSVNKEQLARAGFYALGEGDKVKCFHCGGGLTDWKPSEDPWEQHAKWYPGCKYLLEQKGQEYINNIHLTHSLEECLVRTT
T1 sequence (P98170 241-356): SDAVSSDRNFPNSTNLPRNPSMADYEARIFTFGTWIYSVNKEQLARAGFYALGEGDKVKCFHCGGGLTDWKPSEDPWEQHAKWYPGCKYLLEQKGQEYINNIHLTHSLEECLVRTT

| SMILES | IC50 [1, 3] [nM] | IC50 [2, 4] [nM] | IC50 [1] [nM] | IC50 [2] [nM] |
| --- | --- | --- | --- | --- |
| CN[C@@H](C)C(=O)N[C@H](C(=O)N1C[C@@H](NC(=O)c2ccc3c(c2)CN(C(=O)[C@@H](NC(=O)[C@@H](NC)C2CC2)C(C)(C)C)[C@H](C(=O)N[C@@H]2CCCc4ccccc42)C3)C[C@H]1C(=O)N[C@@H]1CCCc2ccccc21)C(C)(C)C [Example 5, (S)-2-((S)-2-((S)-2-Cyclopropyl-2-(methylamino)acetamido)-3,3-dimethylbutanoyl)-N^7-((3S,5S)-1-((S)-3,3-dimethyl-2-((S)-2-(methylamino)propanamido)butanoyl)-5-(((R)-1,2,3,4-tetrahydronaphthalen-1-yl)carbamoyl)pyrrolidin-3-yl)-N^3-((R)-1,2,3,4-tetrahydronaphthalen-1-yl)-1,2,3,4-tetrahydroisoquinoline-3,7-dicarboxamide] | 14 | 13 |  |  |
| CCC(CC)[C@H](NC(=O)[C@H](C)NC)C(=O)N1Cc2cc(C(=O)N[C@H]3C[C@@H](C(=O)N[C@@H]4CCCc5ccccc54)N(C(=O)[C@@H](NC(=O)[C@H](C)NC)C(C)(C)C)C3)ccc2C[C@H]1C(=O)N[C@@H]1CCCc2ccccc21 [Example 8, (S)-N^7-((3S,5S)-1-((S)-3,3-Dimethyl-2-((S)-2-(methylamino)propanamido)butanoyl)-5-(((R)-1,2,3,4-tetrahydronaphthalen-1-yl)carbamoyl)pyrrolidin-3-yl)-2-((S)-3-ethyl-2-((S)-2-(methylamino)propanamido)pentanoyl)-N^3-((R)-1,2,3,4-tetrahydronaphthalen-1-yl)-1,2,3,4-tetrahydroisoquinoline-3,7-dicarboxamide] | 11 | 2 |  |  |
| CN[C@@H](C)C(=O)N[C@H](C(=O)N1Cc2cc(NC(=O)[C@H]3C[C@@H](C(=O)N[C@@H]4CCCc5ccccc54)N(C(=O)[C@@H](NC(=O)[C@H](C)NC)C(C)(C)C)C3)ccc2C[C@H]1C(=O)N[C@@H]1CCCc2ccccc21)C(C)(C)C [Example 27, (2S,4S)-1-((S)-3,3-Dimethyl-2-((S)-2-(methylamino)propanamido)butanoyl)-N^4—((S)-2-((S)-3,3-dimethyl-2-((S)-2-(methylamino)propanamido)butanoyl)-3-(((R)-1,2,3,4-tetrahydronaphthalen-1-yl)carbamoyl)-1,2,3,4-tetrahydroisoquinolin-7-yl)-N^2—((R)-1,2,3,4-tetrahydronaphthalen-1-yl)pyrrolidine-2,4-dicarboxamide] |  |  | 5 | 1 |
| CN[C@@H](C)C(=O)N[C@H](C(=O)N1C[C@@H](c2ccc3c(c2)CN(C(=O)[C@@H](NC(=O)[C@H](C)NC)C(C)(C)C)[C@H](C(=O)N[C@@H]2CCCc4ccccc42)C3)C[C@H]1C(=O)N[C@@H](Cc1ccccc1)C(=O)NC1CC1)C(C)(C)C [Example 64, (S)-7-((3R,5S)-5-(((S)-1-(Cyclopropylamino)-1-oxo-3-phenylpropan-2-yl)carbamoyl)-1-((S)-3,3-dimethyl-2-((S)-2-(methylamino)propanamido)butanoyl)pyrrolidin-3-yl)-2-((S)-3,3-dimethyl-2-((S)-2-(methylamino)propanamido)butanoyl)-N-((R)-1,2,3,4-tetrahydronaphthalen-1-yl)-1,2,3,4-tetrahydroisoquinoline-3-carboxamide] | 25.6 | 3.8 |  |  |
| CN[C@@H](C)C(=O)N[C@H](C(=O)N1C[C@@H](c2ccc3c(c2)CN(C(=O)[C@@H](NC(=O)[C@H](C)NC)C(C)(C)SCC(=O)NCCO)[C@H](C(=O)N[C@@H]2CCCc4ccccc42)C3)C[C@H]1C(=O)N[C@@H]1CCCc2ccccc21)C(C)(C)C [Example 29, (S)-7-((3R,5S)-1-((S)-3,3-Dimethyl-2-((S)-2-(methylamino)propanamido)butanoyl)-5-(((R)-1,2,3,4-tetrahydronaphthalen-1-yl)carbamoyl)pyrrolidin-3-yl)-2-((R)-3-((2-((2-hydroxyethyl)amino)-2-oxoethyl)thio)-3-methyl-2-((S)-2-(methylamino)propanamido)butanoyl)-N—((R)-1,2,3,4-tetrahydronaphthalen-1-yl)-1,2,3,4-tetrahydroisoquinoline-3-carboxamide] | 11.7 | 0.8 |  |  |
| CCC(CC)[C@H](NC(=O)[C@H](CC)NC)C(=O)N1C[C@@H](NC(=O)c2ccc3c(c2)CN(C(=O)[C@@H](NC(=O)[C@H](C)NC)C(C)(C)C)[C@H](C(=O)N[C@@H]2CCCc4ccccc42)C3)C[C@H]1C(=O)N[C@@H]1CCCc2ccccc21 [Example 16, (S)-2-((S)-3,3-Dimethyl-2-((S)-2-(methylamino)propanamido)butanoyl)-N^7-((3S,5S)-1-((S)-3-ethyl-2-((S)-2-(methylamino)butanamido)pentanoyl)-5-(((R)-1,2,3,4-tetrahydronaphthalen-1-yl)carbamoyl)pyrrolidin-3-yl)-N^3-((R)-1,2,3,4-tetrahydronaphthalen-1-yl)-1,2,3,4-tetrahydroisoquinoline-3,7-dicarboxamide] | 19 | 10 |  |  |
| CN[C@@H](C)C(=O)N[C@H](C(=O)N1C[C@@H](c2ccc3c(c2)CN(C(=O)[C@@H](NC(=O)[C@H](C)NC)C(C)(C)SCC(=O)N(C)C)[C@H](C(=O)N[C@@H]2CCCc4ccccc42)C3)C[C@H]1C(=O)N[C@@H]1CCCc2ccccc21)C(C)(C)C [Example 30, (S)-7-((3R,5S)-1-((S)-3,3-Dimethyl-2-((S)-2-(methylamino)propanamido)butanoyl)-5-(((R)-1,2,3,4-tetrahydronaphthalen-1-yl)carbamoyl)pyrrolidin-3-yl)-2-((R)-3-((2-(dimethylamino)-2-oxoethyl)thio)-3-methyl-2-((S)-2-(methylamino)propanamido)butanoyl)-N-((R)-1,2,3,4-tetrahydronaphthalen-1-yl)-1,2,3,4-tetrahydroisoquinoline-3-carboxamide] | 3.9 | 5.7 |  |  |
| CN[C@@H](C)C(=O)N[C@H](C(=O)N1Cc2cc([C@H]3C[C@@H](C(=O)N[C@@H]4CCCc5ccccc54)N(C(=O)[C@@H](NC(=O)[C@H](C)NC)C(C)(C)C)C3)ccc2C[C@H]1C(=O)N[C@@H](Cc1ccccc1)C(=O)OC)C(C)(C)C [Example 40, (S)-Methyl 2-((S)-2-((S)-3,3-dimethyl-2-((S)-2-(methylamino)propanamido)butanoyl)-7-((3R,5S)-1-((S)-3,3-dimethyl-2-((S)-2-(methylamino)propanamido)butanoyl)-5-(((R)-1,2,3,4-tetrahydronaphthalen-1-yl)carbamoyl)pyrrolidin-3-yl)-1,2,3,4-tetrahydroisoquinoline-3-carboxamido)-3-phenylpropanoate] | 1.5 | 0.9 |  |  |
| CN[C@@H](C)C(=O)N[C@H](C(=O)N1CC(c2ccc3c(c2)CN(C(=O)[C@@H](NC(=O)[C@H](C)NC)C(C)(C)C)[C@H](C(=O)NC2CCCc4ccccc42)C3)C[C@H]1C(=O)NC(Cc1ccccc1)C(=O)N(C)Cc1ccccc1)C(C)(C)C (stereo in doubt) [Example 72, (S)-7-((3S,5S)-5-(((S)-1-(Benzyl(methyl)amino)-1-oxo-3-phenylpropan-2-yl)carbamoyl)-1-((S)-3,3-dimethyl-2-((S)-2-(methylamino)propanamido)butanoyl)pyrrolidin-3-yl)-2-((S)-3,3-dimethyl-2-((S)-2-(methylamino)propanamido)butanoyl)-N-((R)-1,2,3,4-tetrahydronaphthalen-1-yl)-1,2,3,4-tetrahydroisoquinoline-3-carboxamide] | 16.5 | 3.3 |  |  |
| CN[C@@H](C)C(=O)N[C@H](C(=O)N1C[C@@H](c2ccc3c(c2)CN(C(=O)[C@@H](NC(=O)[C@H](C)NC)C(C)(C)C)[C@H](C(=O)N[C@@H]2CCCc4ccccc42)C3)C[C@H]1C(=O)N[C@@H](Cc1ccccc1)C(=O)NCCc1ccccc1)C(C)(C)C [Example 66, (S)-2-((S)-3,3-Dimethyl-2-((S)-2-(methylamino)propanamido)butanoyl)-7-((3R,5S)-1-((S)-3,3-dimethyl-2-((S)-2-(methylamino)propanamido)butanoyl)-5-(((S)-1-oxo-1-(phenethylamino)-3-phenylpropan-2-yl)carbamoyl)pyrrolidin-3-yl)-N-((R)-1,2,3,4-tetrahydronaphthalen-1-yl)-1,2,3,4-tetrahydroisoquinoline-3-carboxamide] |  |  | 13.3 | 3.1 |
| CN[C@@H](C)C(=O)N[C@H](C(=O)N1C[C@@H](c2ccc3c(c2)CN(C(=O)[C@@H](NC(=O)[C@H](C)NC)C(C)(C)C)[C@H](C(=O)N[C@@H]2CCCc4ccccc42)C3)C[C@H]1C(=O)N[C@@H](Cc1ccccc1)C(=O)NCCOC)C(C)(C)C [Example 61, (S)-2-((S)-3,3-Dimethyl-2-((S)-2-(methylamino)propanamido)butanoyl)-7-((3R,5S)-1-((S)-3,3-dimethyl-2-((S)-2-(methylamino)propanamido)butanoyl)-5-(((S)-1-((2-methoxyethyl)amino)-1-oxo-3-phenylpropan-2-yl)carbamoyl)pyrrolidin-3-yl)-N-((R)-1,2,3,4-tetrahydronaphthalen-1-yl)-1,2,3,4-tetrahydroisoquinoline-3-carboxamide] | 22.1 | 3.4 |  |  |
